Reference: patent publication EP2815749A1, “Solid form of 4-amino-2-(2,6-dioxopiperidine-3-yl)isoindoline-1,3-dione having specified X-ray diffraction pattern” (IP Gesellschaft für Management mbH, priority 2013, dated 2014)
Values after ≈ are worked out from the molar mass of the structure shown. Like-named read-outs stand apart in the source and are kept apart here.

Experiments:
[1] = Solubility of pomalidomide in various solvents; format: physicochemical; details: ambient temperature
Description: Pomalidomide Polymorph Preparations: A weighed sample of pomalidomide (about 100 mg) was treated with 2 mL of a test solvent. The solvents used were either reagent or HPLC grade. The resulting mixture was agitated for at least 24 hours at 25°C. When all of the solids were dissolved by visual inspection, the estimated solubilities were calculated. The solubility was estimated from these experiments based on the total volume of solvent used to give a solution. The actual solubility may be greater than those calculated due to the use of a large amount of solvent or to a slow rate of dissolution. […] A known volume of filtrate was evaporated to dryness and the weight of the residue was measured. Equilibration and evaporation experiments were carried out by adding an excess of pomalidomide to 4 mL of a test solvent. The resulting mixture was agitated for at least 24 hours at 25°C and 50°C separately. Upon reaching equilibrium, the saturated solution was removed and allowed to evaporate slowly in an open vial under nitrogen at 25°C and 50°C respectively. The slurry resulting from the equilibration was filtered and dried in the air. Crystallizations using cooling methods were performed. The solid was dissolved in a solvent at an elevated temperature, approximately 80°C and allowed to cool to room temperature. […] Solids were isolated by decantation and allowed to dry in the air. Precipitation studies were carried out by solvent/anti-solvent combinations. The solid was dissolved in a solvent in which pomalidomide solubility was high, and then a selected solvent in which pomalidomide was highly insoluble (anti-solvent) was added to the solution. A precipitate formed immediately in some solvent/anti-solvent systems. […] The precipitate was then isolated by decantation and allowed to dry in the air. All of the samples generated as described in the polymorph preparation study were analyzed by XRPD. X PD was conducted on a Thermo ARL X'TRA X-ray powder diffractometer using Cu Kcc radiation at 1.54 A. The instrument was equipped with a fine focus X-ray tube. The voltage and amperage of X-ray generator were set at 45 kV and 40 mA, respectively. The divergence slices were set at 4 mm and 2 mm and the measuring slices were set at 0.5 mm and 0.2 mm. Diffracted radiation was detected by peitier-cooled Si(Li) solid state detector. A theta-two theta continuous scan at 2.40°/min (0.5 sec/0.02c step) from 1.5° 20 to 40° 2.0 was used. A sintered alumina standard was used to check the peak position. DSC analyses were performed on a TA instrument Q1000. Indium was used as calibration standards. Approximately 2-5 mg of sample was placed into a DSC pan and the weight was accurately recorded. The sample was heated under nitrogen at a rate of 10°C/min, up to a final temperature of 350°C. Melting points were reported as extrapolated onset temperature. TG analyses were performed on a TA instrument Q500. Calcium oxalate was used for performance check. Approximately 10-25 mg of sample was placed on a pan, accurately weighed and loaded into the TG furnace. The sample was heated under nitrogen at a rate of 10°C/min, up to a final temperature of 350°C. Morphology and particle size analysis of the samples were carried out on an Olympus microscope. The instrument was calibrated with USP standards. Hygroscopicity was determined on a Surface Measurement Systems DVS. Typically a sample size of 10-50 mg was loaded into the DVS instrument sample pan and the sample was analyzed on a DVS automated sorption analyzer at 25°C. The relative humidity was increased in 10% increments from 0% to 95% RH. The relative humidity was then decreased in a similar mariner to accomplish a full adsosption/desorption cycle. […]

[2] = Approximate solubility of pomalidomide at 50°C in 96 solvent compositions (LC); format: physicochemical; details: binary solvent composition (main solvent and co-solvent), 50 °C, organic solvent or mixture, thermodynamic from solid
Description: Pomalidomide Solid Form Preparations: Preparation of solid form of pomalidomide was conducted by equilibrating pomalidomide in 96 solvent compositions at 50°C and subjected to four conditions: slurry, evaporation, cooling, and precipitation. […] Solvents were then added, as binary gradients consisting of main solvent and co-solvent, to give a total of 150 µl, in each of the 96 vials (see Table 6 for the exact composition of each vial). […] For each of the evaporation, precipitation, and cooling experiments, approximately 8 mg of a solid sample of pomalidomide (e.g., Form A) was delivered to each position of the plate. Solvents were added to the master plate, as binary gradients consisting of main solvent and co-solvent, to give a total volume of 800 µT in each of the 96 vials (see Table 7 for the exact composition of each vial). The master plate, containing pomalidomide and solvents, was then equilibrated by stirring for 2 hours at 50°C. Upon completion of the equilibration cycle, the supernatant was aspirated into a four-tipped needle assembly and transferred to a sealed parallel filtration assembly. The mixtures were forced through the filtration assembly using positive pressure and the filtrates were collected in an array of glass vials. The filtered solutions were subsequently aspirated into the four-tipped assembly and aliquots were dispensed to an array of glass vials for subsequent LC analysis to determine approximate concentrations of pomalidomide in each solvent composition at the beginning of the experiments (Table 8). Both the four-tipped needle assembly and filtration assembly were maintained at the equilibration temperature of 50°C throughout the entire transfer process.
The results correspond to the solvent systems described in Table 7, equilibrated at 50°C for 2 hours. […] The approximate concentrations were determined by LC.

## Nc1cccc2c1C(=O)N(C1CCC(=O)NC1=O)C2=O (centres unmarked) [Pomalidomide, 4-amino-2-(2,6-dioxopiperidine-3-yl)isoindoline-1,3-dione]
[1]; Methyl t-butyl ether
  solubility: 1030 µg/mL
[1]; acetone, 25 °C, organic solvent or mixture, thermodynamic from solid, Acetone, read-out: Solubility
  solubility: 1990 µg/mL
[1]; acetonitrile, 25 °C, organic solvent or mixture, thermodynamic from solid, Acetonitrile, read-out: Solubility
  solubility: 1270 µg/mL
[1]; ethanol/water (1:1), 25 °C, aqueous with cosolvent or surfactant or cyclodextrin, thermodynamic from solid, Ethanol/Water (1:1), read-out: Solubility
  solubility: 540 µg/mL
[1]; methyl ethyl ketone, 25 °C, organic solvent or mixture, thermodynamic from solid, Methyl ethyl ketone, read-out: Solubility
  solubility: 1260 µg/mL
[1]; methyl t-butyl ether, 25 °C, organic solvent or mixture, thermodynamic from solid, Methyl t-butyl ether, read-out: Solubility
  solubility: < 1000 µg/mL
[1]; methylene chloride, 25 °C, organic solvent or mixture, thermodynamic from solid, Methylene chloride, read-out: Solubility
  solubility: 1450 µg/mL
[1]; tetrahydrofuran, 25 °C, organic solvent or mixture, thermodynamic from solid, Tetrahydrofuran, read-out: Solubility
  solubility: 5260 µg/mL
[2]; solvent system A4 of Table 7, read-out: Approximate Measured Solubility
  solubility at 2 h: 1440 µg/mL (≈ 5.27 mM)
[2]; solvent system A5 of Table 7, read-out: Approximate Measured Solubility
  solubility at 2 h: 800 µg/mL (≈ 2.93 mM)
[2]; solvent system A6 of Table 7, read-out: Approximate Measured Solubility
  solubility at 2 h: 280 µg/mL (≈ 1.02 mM)
[2]; solvent system A7 of Table 7, read-out: Approximate Measured Solubility
  solubility at 2 h: 6980 µg/mL (≈ 25.5 mM)
[2]; solvent system A8 of Table 7, read-out: Approximate Measured Solubility
  solubility at 2 h: 7940 µg/mL (≈ 29.1 mM)
[2]; solvent system A9 of Table 7, read-out: Approximate Measured Solubility
  solubility at 2 h: 4410 µg/mL (≈ 16.1 mM)
[2]; solvent system B1 of Table 7, read-out: Approximate Measured Solubility
  solubility at 2 h: 230 µg/mL (≈ 0.842 mM)
[2]; solvent system B2 of Table 7, read-out: Approximate Measured Solubility
  solubility at 2 h: 790 µg/mL (≈ 2.89 mM)
[2]; solvent system B3 of Table 7, read-out: Approximate Measured Solubility
  solubility at 2 h: 1030 µg/mL (≈ 3.77 mM)
[2]; solvent system B4 of Table 7, read-out: Approximate Measured Solubility
  solubility at 2 h: 220 µg/mL (≈ 0.805 mM)
[2]; solvent system B5 of Table 7, read-out: Approximate Measured Solubility
  solubility at 2 h: 360 µg/mL (≈ 1.32 mM)
[2]; solvent system B6 of Table 7, read-out: Approximate Measured Solubility
  solubility at 2 h: 150 µg/mL (≈ 0.549 mM)
[2]; solvent system B7 of Table 7, read-out: Approximate Measured Solubility
  solubility at 2 h: 3160 µg/mL (≈ 11.6 mM)
[2]; solvent system B8 of Table 7, read-out: Approximate Measured Solubility
  solubility at 2 h: 1720 µg/mL (≈ 6.29 mM)
[2]; solvent system B9 of Table 7, read-out: Approximate Measured Solubility
  solubility at 2 h: 920 µg/mL (≈ 3.37 mM)
[2]; solvent system B10 of Table 7, read-out: Approximate Measured Solubility
  solubility at 2 h: 480 µg/mL (≈ 1.76 mM)
[2]; solvent system B11 of Table 7, read-out: Approximate Measured Solubility
  solubility at 2 h: 180 µg/mL (≈ 0.659 mM)
[2]; solvent system C1 of Table 7, read-out: Approximate Measured Solubility
  solubility at 2 h: 620 µg/mL (≈ 2.27 mM)
[2]; solvent system C2 of Table 7, read-out: Approximate Measured Solubility
  solubility at 2 h: 1410 µg/mL (≈ 5.16 mM)
[2]; solvent system C3 of Table 7, read-out: Approximate Measured Solubility
  solubility at 2 h: 1670 µg/mL (≈ 6.11 mM)
[2]; solvent system C4 of Table 7, read-out: Approximate Measured Solubility
  solubility at 2 h: 480 µg/mL (≈ 1.76 mM)
[2]; solvent system C5 of Table 7, read-out: Approximate Measured Solubility
  solubility at 2 h: 470 µg/mL (≈ 1.72 mM)
[2]; solvent system C6 of Table 7, read-out: Approximate Measured Solubility
  solubility at 2 h: 260 µg/mL (≈ 0.952 mM)
[2]; solvent system C7 of Table 7, read-out: Approximate Measured Solubility
  solubility at 2 h: 3710 µg/mL (≈ 13.6 mM)
[2]; solvent system C8 of Table 7, read-out: Approximate Measured Solubility
  solubility at 2 h: 2970 µg/mL (≈ 10.9 mM)
[2]; solvent system C9 of Table 7, read-out: Approximate Measured Solubility
  solubility at 2 h: 1840 µg/mL (≈ 6.73 mM)
[2]; solvent system C10 of Table 7, read-out: Approximate Measured Solubility
  solubility at 2 h: 1090 µg/mL (≈ 3.99 mM)
[2]; solvent system C11 of Table 7, read-out: Approximate Measured Solubility
  solubility at 2 h: 490 µg/mL (≈ 1.79 mM)
[2]; solvent system C12 of Table 7, read-out: Approximate Measured Solubility
  solubility at 2 h: 340 µg/mL (≈ 1.24 mM)
[2]; solvent system D1 of Table 7, read-out: Approximate Measured Solubility
  solubility at 2 h: 1530 µg/mL (≈ 5.6 mM)
[2]; solvent system D2 of Table 7, read-out: Approximate Measured Solubility
  solubility at 2 h: 670 µg/mL (≈ 2.45 mM)
[2]; solvent system D3 of Table 7, read-out: Approximate Measured Solubility
  solubility at 2 h: 3460 µg/mL (≈ 12.7 mM)
[2]; solvent system D4 of Table 7, read-out: Approximate Measured Solubility
  solubility at 2 h: 2500 µg/mL (≈ 9.15 mM)
[2]; solvent system D5 of Table 7, read-out: Approximate Measured Solubility
  solubility at 2 h: 1940 µg/mL (≈ 7.1 mM)
[2]; solvent system D6 of Table 7, read-out: Approximate Measured Solubility
  solubility at 2 h: 490 µg/mL (≈ 1.79 mM)
[2]; solvent system D7 of Table 7, read-out: Approximate Measured Solubility
  solubility at 2 h: 3700 µg/mL (≈ 13.5 mM)
[2]; solvent system D8 of Table 7, read-out: Approximate Measured Solubility
  solubility at 2 h: 2310 µg/mL (≈ 8.45 mM)
[2]; solvent system D10 of Table 7, read-out: Approximate Measured Solubility
  solubility at 2 h: 560 µg/mL (≈ 2.05 mM)
[2]; solvent system D11 of Table 7, read-out: Approximate Measured Solubility
  solubility at 2 h: 1160 µg/mL (≈ 4.25 mM)
